{"source": "patent US10709704B2", "about": "“Treating neural disease with tyrosine kinase inhibitors” (GEORGETOWN UNIVERSITY, priority 2012, dated 2020)", "tested_on": "GFP-tagged TDP-43", "test": "Distribution of GFP-tagged TDP-43 in M17 cells", "type": "cell-based, human", "design": "distribution of GFP-tagged TDP-43 / translocation of GFP-tagged TDP-43 with Nilotinib or Bosutinib: unit of the concentration uncertain", "procedure": "Human neuroblastoma M17 cells (seeding density 2×10^5 cells) were grown in 24 well dishes (Falcon) to 70% confluence in Dulbecco's Modified Eagle Medium (DMEM; Invitrogen) plus 10% (v/v) heat-inactivated fetal bovine serum (Invitrogen), penicillin/streptomycin, and 2 mM L-glutamine at 37° C. and 5% CO2, washed twice in phosphate-buffered saline (PBS). Transient transfection was performed with 3 μg parkin cDNA or 3 μg TDP-43 cDNA, or 3 μg LacZ cDNA. Cells were treated with 5 μM tubacin for 24 hours and DAPI stained in 12 well dishes. Cells were harvested 24 hours after transfection. Transfection was performed in DMEM without serum using Lipofectamine 2000 (Invitrogen) according to the manufacturer's protocol. […] Western blot was performed on NuPAGE 4-12% Bis-Tris gel (Invitrogen). Protein estimation was performed using the microscale BioRad protein assay (BioRad Laboratories Inc, Hercules, Calif., USA).\nTo ascertain that both parkin and HDAC6 are required for TDP-43 translocation, GFP-tagged TDP-43 was expressed in M17 neuroblastoma cells in the presence of wild type or loss-of-function mutant (T240R) parkin, and treated with 5 μM selective HDAC6 inhibitor for 24 hours.\nThe following data support these conclusions.", "data": [{"smiles": "O=C(CCCCCCC(=O)Nc1ccc([C@H]2O[C@@H](CSc3nc(-c4ccccc4)c(-c4ccccc4)o3)C[C@@H](c3ccc(CO)cc3)O2)cc1)NO", "note": "[Tubacin]", "values": [{"measurement": "GFP fluorescence (GFP-TDP-43) in the cytosol", "setting": "5 μM for 24 hours, presence or absence of parkin", "value": "did not lead to GFP fluorescence in the cytosol"}, {"measurement": "translocation of GFP-tagged TDP-43 with Nilotinib or Bosutinib", "setting": "Tubacin (5 µM) for additional 24 hrs", "value": "impairs translocation"}]}]}
